Test results published in article PMC6562610, “Inhibition of Hedgehog Signaling in Fibroblasts, Pancreatic, and Lung Tumor Cells by Oxy186, an Oxysterol Analogue with Drug-Like Properties” (Cells, 2019).
“Also recorded” adds a separate entry of the source.

What was measured:
[1] = tested on: Hh target gene Gli1 expression in NIH3T3-E1 cells; experiment: Inhibition of CAPAN-1 conditioned medium (ligand)-induced Gli1 mRNA expression, Q-RT-PCR; format: cell-based; details: 72 h
Text: (§1) NIH3T3-E1 fibroblasts were obtained from ATCC (Manassas, VA) and cultured, as previously described. CAPAN-1 and PANC-1 human pancreatic cancer cells were obtained from ATCC and cultured in Dulbecco’s Modified Eagle Medium (DMEM) containing 10% heat-inactivated fetal bovine serum (FBS) (Hyclone Laboratories, Logan, UT, USA) and antibiotics, as previously described. The human lung cancer cell lines A549 and H2030 were obtained from ATCC and cultured in RPMI-1640 containing 10% FBS. The human hepatoma cell line HepG2 was obtained from ATCC and cultured in DMEM containing 10% FBS. Mouse embryonic fibroblasts (MEFs) from suppressor of fused (Sufu) null mice (Sufu^−/−) were provided by Dr. Philip Beachy of Stanford University and cultured in DMEM containing 10% FBS. Gant61, SB431542 and vismodegib (GDC0449) were obtained from Cayman Chemical, HPI-1 was obtained from Abcam. For experiments, cells were treated in a medium containing 5% FBS.
Growth medium in confluent […] tissue culture plates of CAPAN-1 cells were replaced with 10 ml of fresh growth medium and cells were incubated for a total of 7 days. Conditioned medium (CM), containing Shh and Ihh, was collected and spun down to remove any detached cells and debris, aliquoted, and stored frozen at −80 °C [37].
(§2) Total RNA was extracted with the RNeasy Plus Mini Kit from Qiagen, according to the manufacturer’s instructions. One microgram of RNA was reverse-transcribed using an iScript Reverse Transcription Supermix from Bio-Rad, to make single-stranded cDNA. The cDNAs were then mixed with Qi SYBR Green Supermix (Bio-Rad, Hercules, CA, USA) for quantitative RT-PCR assay using a Bio-Rad I-cycler IQ quantitative thermocycler. […] Fold changes in gene expression were calculated using the ΔΔCt method. […]
(§3) Figure 3 Inhibition of ligand-induced Hedgehog signaling. […] After 72 h, RNA was extracted and analyzed by Q-RT-PCR for the expression of Hh target genes Gli1 (a,b,d) and Ptch1 (c), and normalized to Oaz1 expression. […] Luciferase activity was measured and normalized to the Renilla luciferase activity. […]

[2] = tested on: Smo mediated activation of Hh signaling in NIH3T3 cells; experiment: Inhibition of Hh signaling from allosteric activation of Smo by Oxy133, Q-RT-PCR; format: cell-based, mouse; details: 72 h
Protocol: Total RNA was extracted with the RNeasy Plus Mini Kit from Qiagen, according to the manufacturer’s instructions. One microgram of RNA was reverse-transcribed using an iScript Reverse Transcription Supermix from Bio-Rad, to make single-stranded cDNA. The cDNAs were then mixed with Qi SYBR Green Supermix (Bio-Rad, Hercules, CA, USA) for quantitative RT-PCR assay using a Bio-Rad I-cycler IQ quantitative thermocycler. All PCR samples were prepared in triplicate wells in a 96-well plate. After 40 cycles of PCR, melt curves were examined in order to ensure primer specificity. Fold changes in gene expression were calculated using the ΔΔCt method. Primers used for mouse were as follows: Oaz1 (5’-CCACTGCTTCGCCAGAGAG-3’) and (5’-CCCGGACCCAGGTTACTA-3’), Gli1 (5’-[…]-3’ and 5’-[…]-3’), Ptch1 (5’-CCATCGGCGACAAGAACC-3’ and 5’-[…]-3’), Hip (5’-[…]-3’ and 5’-[…]-3’), and Abca1 (5’-[…]-3’ and 5’-[…]-3’). […]
as §3

[3] = tested on: Gli1 expression in H2030 cells; experiment: Inhibition of Gli1 expression in H2030 cells, Q-RT-PCR; format: cell-based, human; details: 10 µM, 72 h
Text: as §1
as §2, with “thermocycler. All PCR samples were prepared in triplicate wells in a 96-well plate.” for “thermocycler.”
Figure 4 Inhibition of Gli and Shh expression in (a) PDAC (PANC-1) and (b,c) human lung cancer cells (A549 and H2030, respectively) by Oxy186. Cells were treated with the compounds as indicated in DMEM or RPMI 1640 containing 5% FBS for (a) 48 or (b,c) 72 hours, then RNA was extracted and analyzed by Q-RT-PCR for the expression of Gli1 and normalized to GAPDH expression. (d) CAPAN-1 cells were treated with the compounds, as indicated, in DMEM containing 5% FBS for 72 h, then RNA was extracted and analyzed by Q-RT-PCR for the expression of Shh and normalized to GAPDH expression. […]

PANC-1 cells = experiment: Cell counting assay, PANC-1; format: cell-based, human; details: 96 h
Protocol: (§4) A549 and H2030 cells cultured in 12-well plates at 20% confluence were treated with Oxy186, HPI-1, Gant61, or GDC0449 for 96 hours and then trypsinized and suspended in fresh medium. An aliquot of cell suspension was applied to a hemocytometer and counted under a microscope.
(§5) Figure 6 Inhibition of human pancreatic and lung cancer cell proliferation by Oxy186. (a,c) A549, (b) and (d) H2030, (e) PANC-1, and (f) CAPAN-1 cells were treated with the compounds as indicated in RPMI 1640 (a–d) or DMEM (e,f) containing 5% FBS for 96 h and then were trypsinized and counted. Data from a representative experiment are reported as the mean of triplicate determinations ± SD (* p < 0.05 vs. Control; ** p < 0.01 vs. control).

CAPAN-1 cells = experiment: Cell counting assay, CAPAN-1; format: cell-based, human; details: 96 h
Protocol: as §4, §5

C[C@]12CC[C@H](O)C[C@@H]1CC[C@@H]1[C@@H]2CC[C@@]2(C)[C@H]1CC[C@@H]2[C@](C)(O)CCc1ccc(F)cc1 [Oxy186, (3S,5S,8R,9S,10S,13S,14S,17S)-17-((R)-4-(4-fluorophenyl)-2-hydroxybutan-2-yl)-10,13-dimethylhexadecahydro-1H-cyclopenta[a]phenanthren-3-ol]
Inhibition of ligand-induced Gli1 mRNA expression ([1]; NIH3T3-E1 cells, CAPAN-1 CM): robustly inhibited; also recorded: greater Hh signaling inhibitory efficacy than Oxy16
IC50 ([1]; NIH3T3 cells activated by CAPAN-1 CM Hh ligands): 0.6 µM
Suppression of Hh signaling from allosteric activation of Smo by Oxy133 [2]: significantly suppressed
Inhibition of expression of Gli1 [3]: significantly inhibited
Anti-proliferation effect (PANC-1 cells): significant anti-proliferation effects
Anti-proliferation effect (CAPAN-1 cells): significant anti-proliferation effects; also recorded: moderate anti-proliferative effects
